The values below are quoted from earlier work in US12642772B2, “Triptolide formulations” (MINNEAMRITA THERAPEUTICS LLC, priority 2024, dated 2026).

As for `CC(C)[C@]12O[C@H]1[C@@H]1O[C@]13[C@]1(O[C@H]1C[C@H]1C4=C(CC[C@@]13C)C(=O)OC4)[C@@H]2O` [triptolide, Triptolide], the solubility in water result is reported as “approximately 0.017 mg/mL”.
